Experiment [1] addresses PDE6 enzyme. As to conditions: read-out: METHOD 2: PDE6 IC50; Table F, WO2004096810 examples. The text has this: Method 2: Human Retina PDE6 Enzyme Inhibition Scintillation Proximity Assay (SPA)
The inhibition of PDE6 enzyme activity by a test compound can be measured in accordance with the in vitro assay of Method 1, but instead using semi-purified PDE6 enzyme isolated from human, bovine or canine retina in place of PDE5 enzyme. […] [3H]GMP binds to yttrium silicate SPA beads and is detected by scintillation counting. • PDE6 Purification: PDE6 can be isolated and purified from the following: Soluble rod PDE6/Rod Outer Segment PDE6 from Bovine eyes (Charles River Ltd, France); Cone PDE6 from Canine eyes (LAS); or Soluble rod and Cone PDE6 from Human eyes (I.I.A.M.).
While supporting the eye with the cornea uppermost, make a small incision through the conjunctiva below the level of the iris. The incision should be sufficient to allow the humor to escape through the cut. Using fine scissors, cut around the cornea to enable it to be lifted off as a flap. Using a small hook, engage the lens and gently pull it out of orbit, taking care not to pull out the retina at the same time. Allow the retina to drop down of its own accord to the base of the orbit.
Lift the retina with care and locate the optic nerve. Cut through the optic nerve and transfer the retina to a small dish containing a few ml of homogenisation buffer. Gently float the retina out on the surface of the buffer and remove any obvious pigmented material from the iris. Place the retina in a second dish with clean buffer to remove last traces of pigment and then transfer to a 50 ml Corning Costar centrifuge tube (Sigma) and keep on ice. • PDE6 Isolation and Purification from Retina: Allow 2 mls of the homogenisation buffer per bovine retina and 1 ml per retina for dog and human. Homogenise using hand-held homogeniser 3×5 second bursts cooling on ice between each burst. Filter homogenate through two layers of surgical gauze. Spin at 100,000 g for 60 minutes at 4° C. […] Run through FPLC (Pharmacia FPLC LKB/FRAC-100, Pharmacia) or aliquot and store in liquid nitrogen as needed. Method 2A: Alternative Human Retina PDE6 Enzyme Inhibition Scintillation Proximity Assay (SPA)

Experiment [2] addresses T1, PDE5 enzyme (Homo sapiens, UniProt O76074).
T1 construct: The PDE5 enzyme isolated from human platelets; from tissue; host or cells: human platelets
The experiment in a line: Method 1: Human Platelet PDE5 Enzyme Inhibition Scintillation Proximity Assay. As to conditions: METHOD 1: PDE5 IC50, Table B, WO2004096810 examples. In kind it is biochemical. In short, it runs like this:
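Human platelet PDE5 hydrolysing 500 nM cGMP (3:1 unlabelled:[3H]) in Tris-HCl pH 7.4 with MgCl2 and BSA, 60 min at 30 °C. Reaction stopped with yttrium silicate SPA beads and [3H]GMP counted by scintillation. IC50 from sigmoid curves over a 10-point half-log dilution series, in duplicate.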
(In general: SPA uses beads or plates that emit light when radiolabelled molecules are held near them.)

In experiment [3] the target is T2, PDE11 enzyme (Homo sapiens, UniProt Q9HCR9, DUP921-921).
T2 construct: FLAG (N); made in house; host or cells: Sf9 insect cells (baculovirus, pFastBac)
The experiment in a line: Method 3: Human Recombinant PDE11 Enzyme Inhibition Scintillation Proximity Assay (SPA). To be noted: WO2004096810 examples. In kind it is biochemical. As to the method:
Method 3: Human Recombinant PDE11 Enzyme Inhibition Scintillation Proximity Assay (SPA)
PDE11 Expression and Purification:
Incubate at 27° C. with 220 rpm shaking for 48 hours. Harvest the infected cells by pelleting at 2000 rpm for 10 minutes at 4° C. Store the infected cell pellet at −80° C. until ready for purification. Resuspend the thawed cell pellets to 1×10^7 cells/ml (=20 ml buffer consisting of 20 mM Hepes (pH7.2), 1 mM EDTA, 20 mM sucrose, 150 mM NaCl and protease inhibitor tablets). Mix thoroughly and allow to stand on ice for 10 minutes. Sonicate for 5×5 seconds, on ice. Spin the mixture at 12,000 rpm for 10 minutes at 4° C. in SS34. Store the insoluble pellet at −80° C., and proceed to the purification of the soluble material. • (b) Purification: Prepare the column (1.0 cm diameter, Kontes) by rinsing the empty column twice with TBS. Then mix beads (Anti-FLAG M2 Agarose, Sigma) with TBS and add to the column—allow the beads to settle. Wash the column with 3 column volumes of 0.1M glycine (pH3.5). […] Apply the extract to the column and allow the extract to enter by gravity flow. Reapply the flow-through. Wash the column with 15 column volumes of TBS. Elute the protein with 5×1 ml aliquots of FLAG peptide (Sigma) (i.e., 100 ug/ml in TBS). Elute the remaining protein with 1 ml 0.1M glycine, and immediately add 25 ul 1M Tris pH8 to neutralize. Method 3A: Alternative Human Recombinant PDE11 Enzyme Inhibition Scintillation Proximity Assay (SPA)

Experiment [4] has as its system spontaneously hypertensive rats (SHR). The experiment in a line: Method 12: SHR Rat Combination Therapy, blood pressure by telemetry. In kind it is in vivo. As to conditions: 0.007% in drinking water, day 7.
[5] abbreviates: Table F, read-out: METHOD 3: PDE11 IC50.

Read-outs that look alike come from different tables or passages of the source.

What is called IC50 is the concentration that inhibits the measured activity by half.

T2 sequence (Q9HCR9 with tags, fused parts or gaps DUP921-921 limits assumed): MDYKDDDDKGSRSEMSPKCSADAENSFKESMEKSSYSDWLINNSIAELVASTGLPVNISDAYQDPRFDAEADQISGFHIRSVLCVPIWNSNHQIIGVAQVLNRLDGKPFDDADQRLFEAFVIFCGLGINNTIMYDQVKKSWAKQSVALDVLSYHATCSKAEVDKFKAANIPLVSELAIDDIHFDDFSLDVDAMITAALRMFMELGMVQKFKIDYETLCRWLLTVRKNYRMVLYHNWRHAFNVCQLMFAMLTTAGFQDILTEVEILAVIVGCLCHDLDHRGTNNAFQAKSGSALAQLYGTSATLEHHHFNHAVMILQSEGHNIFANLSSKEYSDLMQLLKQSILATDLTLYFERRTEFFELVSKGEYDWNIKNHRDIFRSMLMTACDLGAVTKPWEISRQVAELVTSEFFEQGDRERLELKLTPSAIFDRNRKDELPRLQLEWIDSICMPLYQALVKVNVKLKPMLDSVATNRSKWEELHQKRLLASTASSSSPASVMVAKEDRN

Regarding `CCOCc1nn(CCOCC(F)(F)F)c2c(Nc3cc(C)ccn3)nc(N3CCN[C@H](C)C3)nc12` [WO2004096810 Example 256], the IC50 came to 275 nM in experiment [1], 3.82 nM in experiment [2] and 913 nM in experiment [3] (setting [5]).
As to `CCc1nn(CCOCC(F)(F)F)c2c(Nc3cc(C)ncn3)nc(N(C)C3CCN(C)CC3)nc12` [WO2004096810 Example 251], the IC50 in experiment [1] was found to be 9.51 nM; in experiment [2], 0.25 nM; in experiment [3] (METHOD 3: PDE11 IC50, Table F), 1860 nM.
Regarding `Cc1cccc(Nc2nc(N3CCNCC3)nc3c(C)nn(CCOCC(F)(F)F)c23)n1` [WO2004096810 Example 258], the concentration for half-maximal inhibition (IC50) is 198 nM in experiment [1], 1.99 nM in experiment [2] and 215 nM in experiment [3] (setting [5]).
On the same counts, the results for `CCc1nn(CCOCC(F)(F)F)c2c(Nc3ccnnc3)nc(N3CCN[C@H](C)C3)nc12` [WO2004096810 Example 248] are 9.92 nM, 0.3 nM and 316 nM.
With `COCc1nn(CCOCC(F)(F)F)c2c(Nc3cccc(C)n3)nc(N3CCN[C@H](C)C3)nc12` [WO2004096810 Example 252], the IC50 worked out at 307 nM in experiment [1], 2.81 nM in experiment [2] and 874 nM in experiment [3] (setting [5]).
As for `COCc1nn(CCOCC(F)(F)F)c2c(Nc3cc(C)ccn3)nc(N3CC4CCC(C3)N4)nc12` [WO2004096810 Example 259], the IC50 in experiment [1] is 204 nM; in experiment [2], 3.74 nM; in experiment [3] (METHOD 3: PDE11 IC50, Table F) it was 199 nM.
Turning to `CCOCc1nn(CCOCC(F)(F)F)c2c(Nc3cccc(C)n3)nc(N3CCN[C@H](C)C3)nc12` [WO2004096810 Example 255], the IC50 in experiment [1] turned out to be 207 nM; in experiment [2], 1.43 nM; in experiment [3] (setting [5]), 937 nM.
With `CCN(C)c1nc(Nc2ccc(=O)n(C)c2)c2c(n1)c(COC)nn2CCOCC(F)(F)F` [WO2004096810 Example 254], the IC50 in experiment [1] worked out at 188 nM; in experiment [2] it was 0.59 nM; in experiment [3] (setting [5]), 2880 nM.
On the same counts, the results for `CCc1nn(CCOCC(F)(F)F)c2c(Nc3ccncn3)nc(N3CCN[C@H](C)C3)nc12` [WO2004096810 Example 249] are 5.1 nM, 0.16 nM and 1190 nM.
On the same counts, the results for `Cc1ccnc(Nc2nc(N(C)[C@H]3CCN(C)C3)nc3c(C)nn(CCOCC(F)(F)F)c23)c1` [WO2004096810 Example 245] are 250 nM, 1.55 nM and 390 nM.
Consider `COCc1nn(CCOCC(F)(F)F)c2c(Nc3cccc(C)c3)nc(N3CCN[C@H](C)C3)nc12` [WO2004096810 Example 253], for which the IC50 in experiment [1] is 100 nM; in experiment [2], 1.2 nM; in experiment [3] (setting [5]) it was 312 nM.
On the same counts, the results for `CCc1nn(CCOCC(F)(F)F)c2c(Nc3ccnc(C)n3)nc(N3CCN[C@H](C)C3)nc12` [WO2004096810 Example 250] are 221 nM, 2.37 nM and 3120 nM.
On the same counts, the results for `Cc1nccc(Nc2nc(N3CCN[C@H](C)C3)nc3c(C)nn(CCOCC(F)(F)F)c23)n1` [WO2004096810 Example 246] are 657 nM, 4.46 nM and 4320 nM.
`CCOC(=O)[C@H](CCc1ccccc1)N[C@@H](C)C(=O)N1CCC[C@H]1C(=O)O` [Enalapril, enalapril]: in experiment [4], the “maximal reduction of blood pressure from pre-dose baseline in comparison to vehicle treated group” value came to 22±2 mmHg.

The record behind these values is patent US8518956B2, “1-(1-(2-ethoxyethyl)-3-ethyl-7-(4-methylpyridin-2-ylamino)-1H-pyrazolo[4,3-d]pyrimidin-5-yl) piperidine-4-carboxylic acid and salts thereof” (priority 2005, dated 2013).
